Experimental data: patent US9040307B2, “Fluorescent pH detector system and related methods” (Blood Cell Storage, Inc., priority 2011, dated 2015)
Where two headings read alike, the source gives them in different places.

What was measured:
[1] = pKa determination from fluorescence emission spectra of SNAFL free acids; assay type: physicochemical; details: 10 μM free acid, 50 mM phosphate buffers
From the text: The pH at which two molecular species (tautomers) are equally represented is defined as the pKa. There are many variables that can affect pKa and methods for measurement are difficult since the structures have overlapping absorbance. Therefore direct comparisons from the literature can vary slightly. The calculations contained herein are based on the assumption that, at pH 10, only the trianionic naphtholate structure is present. The intensity of fluorescence at the emission maxima is divided by 2, and pH of the intersecting pH curve is calculated by interpolation between the nearest 2 curves.

[2] = Photobleaching degradation under fluorescent light; assay type: physicochemical
Description: A photobleaching degradation curve for EBIO-3 and BCSI-3 was constructed utilizing fluorescent light exposure and measuring the absorption at 530 nm to quantify functional dye. Identical concentrations of both dyes, 7.9 μM, were exposed to continuous fluorescent light (34 W Philips Hg bulb) from a distance of 16 inches for 3 days. At 73.5 hours the two dyes had degraded 64% and the degradation is within 5.6% of each other.

[3] = Absorbance and fluorescence of fluorophore/HSA conjugates in solution; assay type: physicochemical; details: pH 7.4; free acid 10 micromolar, conjugates 1 micromolar
From the text: A 10 micromolar solution of SNAFL-1 acid (obtained from Molecular Probes) at pH 7 was used as a standard to more accurately determine the average loading of SNAFL-1 per each HSA conjugate preparation.
Excitation conditions are reported for each fluorescence spectrum (3000 msec irradiation at the indicated wavelength).
The Ocean Optics halogen light source was equipped with a 532 nm interference filter (Edmund Optics, Barrington, N.J.) and this allowed the fluorescent isosbestic point at 572 nm for pH 6-7 to be detected.

[4] = Absorbance and emission spectra versus pH of SNAFL analogs in solution
[5] = cited from earlier work
[6] = Lee et al. (1989) Cytometry 10, 151-164

Row | Molecule | pKa [1] | degraded (reduction in absorbance at 530 nm) ([2]; 73.5 hours continuous fluorescent light, 7.9 μM, pH 7.4 PBS) | absorption at 530 nm of control set ([2]; protected from light) | absorbance maximum [3] | pKa (physchem) | Absorbance λmax (base) ([4]; 10 μM, pH 10) | Emission λmax (base) ([4]; pH 10, excitation at absorbance λmax (base)) | Emission λiso ([4]; wavelength where emission spectra crossed, excitation at absorbance λmax (base)) | pKa [5, 6] | pKa ([5]; published values, free or immobilized dye)
1 | O=C(O)CCc1cc2c(-c3ccccc3C(=O)O)c3ccc4cc(O)c(Cl)cc4c3oc-2cc1=O [EBIO-3] | 6.6 | 64% | unchanged | 534 nm | 6.61 | 534 nm | 610 nm | 560 nm |  | 
2 | Carboxynaphthofluorescein [CNF] |  |  |  |  |  |  |  |  | 7.99 | 7.62
3 | O=S1(=O)OC2(c3ccccc31)c1ccc3cc(O)ccc3c1Oc1c2ccc2cc(O)ccc12 [VITABLUE] |  |  |  |  |  |  |  |  | 7.56 | 
